In the NIST ThermoML archive (doi:10.1016/j.jct.2006.03.021):

Experiment: molar heat capacity at constant pressure
Conditions: 101.33 kPa, Crystal, Vacuum adiabatic calorimetry

O.OC[C@H]1O[C@@H](O[C@H]2O[C@H](CO)[C@@H](O)[C@H](O)[C@H]2O)[C@H](O)[C@@H](O)[C@@H]1O [α,β-trehalose monohydrate]
Conditions | molar heat capacity at constant pressure [J/K/mol]
12.15 K | 6.701
12.87 K | 6.35
13.89 K | 7.774
15 K | 9.56
15.06 K | 9.688
16.13 K | 11.54
17.15 K | 13.35
18.14 K | 15.21
19.1 K | 17.06
20 K | 18.85
20.02 K | 18.86
20.99 K | 20.81
21.98 K | 22.87
22.97 K | 24.93
23.99 K | 27.06
25.09 K | 29.37
26.28 K | 31.89
27.52 K | 34.52
28.79 K | 37.22
30 K | 39.76
30.14 K | 40.07
31.48 K | 42.93
32.83 K | 45.73
34.23 K | 48.62
35.64 K | 51.52
37.04 K | 54.43
38.44 K | 57.19
39.85 K | 59.97
40 K | 60.3
41.25 K | 62.71
42.67 K | 65.48
44.14 K | 68.28
45.66 K | 71.1
47.22 K | 74
48.83 K | 76.91
50 K | 78.98
50.46 K | 79.86
52.14 K | 82.8
53.84 K | 85.77
55.55 K | 88.73
56.47 K | 90.18
58.33 K | 93.36
60 K | 96.14
60.17 K | 96.48
62 K | 99.53
63.81 K | 102.56
65.62 K | 105.58
67.43 K | 108.53
69.25 K | 111.51
70 K | 112.73
71.08 K | 114.46
72.92 K | 117.44
74.76 K | 120.43
76.6 K | 123.41
78.42 K | 126.41
80 K | 128.94
80.24 K | 129.3
82.05 K | 132.24
83.88 K | 135.15
85.74 K | 138.11
87.62 K | 141.12
89.52 K | 144.11
90 K | 144.87
91.42 K | 147.15
93.33 K | 150.17
95.28 K | 153.24
97.28 K | 156.4
99.29 K | 159.5
100 K | 160.59
101.26 K | 162.58
103.21 K | 165.61
105.12 K | 168.61
107.01 K | 171.53
108.87 K | 174.41
110 K | 176.15
110.71 K | 177.24
112.52 K | 180.05
114.31 K | 182.82
116.08 K | 185.5
117.84 K | 188.16
119.57 K | 190.8
120 K | 191.54
121.29 K | 193.41
122.99 K | 196.08
124.68 K | 198.72
126.4 K | 201.25
128.14 K | 203.9
129.89 K | 206.59
130 K | 206.76
131.7 K | 209.4
133.54 K | 212.03
135.4 K | 214.95
137.31 K | 217.83
139.29 K | 220.87
140 K | 221.8
141.32 K | 223.89
